Reference: PMC5865291, “A fast and sensitive activity assay for lytic polysaccharide monooxygenase” (Biotechnology for Biofuels, 2018)

Molecular target: T1, NcLPMO9F (Neurospora crassa, UniProt Q1K4Q1)
T1 construct: gene gh61-6; recombinant secreted from Pichia pastoris X-33, column purified; 23,200 g/mol
T1 sequence (Q1K4Q1 18-231): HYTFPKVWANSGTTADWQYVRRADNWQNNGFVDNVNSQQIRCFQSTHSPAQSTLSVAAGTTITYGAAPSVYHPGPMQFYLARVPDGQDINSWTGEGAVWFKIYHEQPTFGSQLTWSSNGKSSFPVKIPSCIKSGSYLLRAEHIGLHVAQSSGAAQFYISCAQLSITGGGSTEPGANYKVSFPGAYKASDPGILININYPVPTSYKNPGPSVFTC
Test: spectrophotometric peroxidase assay at […] nm (coerulignone formation)
Type: biochemical
Conditions: H2O2 cosubstrate, standard conditions (30 °C); turnover only

COc1cccc(OC)c1O [2,6-dimethoxyphenol]
specific activity: The peroxidase activity was found for three different LPMOs from two different organisms
